The test deals with subjects undergoing bunionectomy. The test can be described thus: Postsurgical opioid consumption, opioid-free subjects and time to first opioid rescue, clinical trial #1. The test is classed as in vivo, human. The method, then: Clinical Study #1 was a Phase 3, multicenter, randomized, double-blind, active-controlled study in 180 subjects undergoing bunionectomy. Subjects received a sciatic (in the popliteal fossa) nerve block with a single dose of either […] 266 mg ([…] 133 mg (EXP133), or 0.25% bupivacaine HCl (50 mg; BUP50). The study was conducted in two parts (Part A and Part B). Part A was to be completed and analyzed before enrollment in Part B was initiated. Part A was a 3-arm cohort with 66 subjects undergoing bunionectomy to obtain information on pharmacokinetics (PK), pharmacodynamics (PD), efficacy, and safety. Subjects were randomized (1:1:1) to the EXP266, EXP133, and BUP50 treatment arms. Part B was a 2-arm cohort with 119 subjects undergoing bunionectomy to evaluate the efficacy and safety of […] compared with bupivacaine HCl. The dose of the […] arm in Part B was determined based on the interim analysis of the Part A cohort results. On the day of surgery, subjects received an ultrasound-guided sciatic (in the popliteal fossa) nerve block with one of the following treatments: • EXP266 arm: subjects randomized to this treatment arm received 20 mL (266 mg) […] mixed with 10 mL saline (Part A only; per interim analysis was not selected for Part B) • EXP133 arm: subjects randomized to this treatment arm received 10 mL (133 mg) […] mixed with 20 mL saline (Part A and B) • BUP50 arm: subjects randomized to this treatment arm received 20 mL (50 mg) 0.25% bupivacaine HCl mixed with 10 mL saline (Part A and B) Postsurgical pain for breakthrough pain. An unscheduled pain intensity assessment using the NRS (measured as “On a scale from 0 to 10, where 0 equals no pain and 10 equals the worst possible pain, how much pain are you experiencing in your operative foot right now?”) was to be completed immediately prior to administration of any breakthrough pain medication up to 96 h post-surgery. Medications were administered PRN; opioids were not to be given on a pre-determined schedule. […] All postsurgical analgesics administered, were to be recorded through hospital discharge. […]

Where a name gives a salt, the structure may show the parent alone.

Data on one compound can be found in patent publication US11918565B1, “Treatment of post-operative pain via sciatic nerve block with sustained-release liposomal anesthetic compositions” (Pacira Pharmaceuticals, Inc., priority 2022, dated 2024).

`CCCCN1CCCCC1C(=O)Nc1c(C)cccc1C` (stereo not drawn) [BUP50, bupivacaine HCl]: the “estimate of the proportion of opioid-free subjects” value (0 to 96 h post-surgery, EXP266 Part A, EXP133 and BUP50 Part A+B) was 9.8%. Also, under “EXP266 Part A, EXP133 and BUP50 Part A+B”, the “proportion of subjects who received opioid breakthrough medication” value was 90.2%. For the same compound, the “median time to first rescue medication” value (post-surgery, Kaplan-Meier) is 20.68 h.
